Source: publication PMC11594246, “Nitrilase GiNIT from Gibberella intermedia Efficiently Degrades Nitriles Derived from Rapeseed Meal Glucosinolate” (International Journal of Molecular Sciences, 2024)

Key:
rRrNIT = target: T1, rRrNIT (Rhodococcus rhodochrous, UniProt Q02068); assay: specific activity, Bertholet ammonia assay; assay type: biochemical; settings: 50 mM substrate, pH 7.5, 45 °C
T1 construct: synthetic gene expressed in E. coli BL21(DE3), purified
T1 sequence (Q02068 1-383): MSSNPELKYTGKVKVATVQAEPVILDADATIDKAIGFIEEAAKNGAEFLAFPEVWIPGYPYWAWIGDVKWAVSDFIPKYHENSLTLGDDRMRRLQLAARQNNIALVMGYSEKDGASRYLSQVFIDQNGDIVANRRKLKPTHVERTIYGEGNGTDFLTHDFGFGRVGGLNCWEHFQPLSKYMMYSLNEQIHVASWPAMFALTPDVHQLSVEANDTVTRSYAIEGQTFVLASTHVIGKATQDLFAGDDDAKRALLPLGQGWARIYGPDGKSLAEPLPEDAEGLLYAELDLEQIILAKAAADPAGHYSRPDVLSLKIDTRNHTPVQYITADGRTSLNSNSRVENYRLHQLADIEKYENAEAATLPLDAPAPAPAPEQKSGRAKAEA

rBdNIT = target: T2, rBdNIT (Bradyrhizobium diazoefficiens, UniProt Q89PT3); assay: specific activity, Bertholet ammonia assay; assay type: biochemical; settings: 50 mM substrate, pH 7.5, 45 °C
T2 construct: gene blr3397; synthetic gene expressed in E. coli BL21(DE3), purified
T2 sequence (Q89PT3 1-321): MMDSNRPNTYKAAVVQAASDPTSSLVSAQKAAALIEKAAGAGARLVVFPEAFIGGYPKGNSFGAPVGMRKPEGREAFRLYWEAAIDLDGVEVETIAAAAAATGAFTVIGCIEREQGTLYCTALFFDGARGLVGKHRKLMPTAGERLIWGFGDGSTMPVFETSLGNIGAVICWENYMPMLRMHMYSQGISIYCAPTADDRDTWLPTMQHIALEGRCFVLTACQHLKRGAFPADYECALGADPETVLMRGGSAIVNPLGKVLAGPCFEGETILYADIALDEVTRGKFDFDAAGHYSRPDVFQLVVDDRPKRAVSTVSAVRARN

Row | Structure (SMILES) | specific activity, Bertholet ammonia assay (rRrNIT) | specific activity, Bertholet ammonia assay (rBdNIT)
1 | C=CCC#N [3-butenenitrile] | rRrNIT from Rhodococcus rhodochrous | rBdNIT from Bradyrhizobium diazoefficiens
2 | C=CCCC#N [4-pentenenitrile] | rRrNIT from Rhodococcus rhodochrous | rBdNIT from Bradyrhizobium diazoefficiens
